# Assay results as given in patent US6710877B2, “Apparatus and methods for determining biomolecular interactions” (Corning Incorporated, priority 2001, dated 2004).
# Read-outs that look alike come from different tables or passages of the source.
# Tests used:
# Assay type in all cases: binding
# anti-biotin = assay: Dual compartment absorbance sensor: leaching of ligand from agarose gel containing anti-biotin; settings: anti-biotin instead of streptavidin, otherwise as Example 2
# streptavidin [1] = target: T1, streptavidin (Streptomyces avidinii, UniProt P22629); assay: Dual compartment absorbance sensor: leaching of ligand from agarose gel containing streptavidin; settings: for effective binding constant k from fit of equation 3 to concentration-time traces: 2.5% agarose gel, streptavidin, 8.4×10^−4 M ligand, 0.1×SSC buffer, 220 nm absorbance; for coefficient1 of fitting function f=coefficient1*Error_Function(coefficient2*time^1/2) / coefficient2 of fitting function f=coefficient1*Error_Function(coefficient2*time^1/2): average of traces, Marquardt-Levenberg fit
# T1 construct: purchased Sigma Corp., St. Louis, Mo; B3763
# streptavidin [2] = target: T1, streptavidin; assay: Three slot diffraction sensor: leaching of ligand out of the central sensing volume
# T1 sequence (P22629 25-183, species assumed): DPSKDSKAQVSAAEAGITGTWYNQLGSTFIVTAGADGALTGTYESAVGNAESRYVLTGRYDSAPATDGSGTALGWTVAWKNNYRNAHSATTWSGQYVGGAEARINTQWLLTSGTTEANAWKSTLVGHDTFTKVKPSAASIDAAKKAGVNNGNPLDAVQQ
Structure (SMILES),binding affinities with anti-biotin in upstream compartment (FIGS. 7A and 7B) (anti-biotin),effective binding constant k from fit of equation 3 to concentration-time traces (streptavidin [1]),coefficient1 of fitting function f=coefficient1*Error_Function(coefficient2*time^1/2) (streptavidin [1]),coefficient2 of fitting function f=coefficient1*Error_Function(coefficient2*time^1/2) (streptavidin [1]),factor by which binding constant k of biotin exceeds that of glutamine (streptavidin [1]; biotin versus glutamine curve-fits),"leaching out of central sensing volume, peak-to-peak intensity difference versus time (FIG. 10) (streptavidin [2])","leaching out of central sensing volume, peak-to-peak intensity difference versus time (FIG. 10) (streptavidin [2]; three samples each, 1×TBE buffer, qualitative)"
O=C(O)CCCC[C@@H]1SC[C@@H]2NC(=O)N[C@@H]21 [biotin],indistinguishable,0.01186 min⁻¹,~1.5 mM,0.1089,4,more activity in the biotin traces,
NC(=O)CC[C@H](N)C(=O)O [glutamine],indistinguishable,0.00325 min⁻¹,~1.6 mM,0.0570,,,much slower than biotin leaching
